Measured values as given in patent US8754095B2, “Substituted N-heterocycloalkyl bipyrrolidinylphenyl amide derivatives, preparation and therapeutic use thereof” (Sanofi, priority 2010, dated 2014).
Structures can show the parent of a compound that is named as a salt.

How the values were obtained:
[1] = target: T1, rhesus (Macacca Mulatta) H3 receptor (Macaca mulatta, UniProt Q865E1); experiment: Rhesus H3 [3H]-Methylhistamine radioligand binding assay; parameters: species or system rhesus monkey (Macacca Mulatta); conditions: displacement of [3H]-Methylhistamine (2 nM), rhesus H3 membranes, Cheng-Prusoff
T1 construct: pcDNA5/FRT/TO (Invitrogen) containing the rhesus monkey (Macacca Mulatta) 445 amino acid H3 receptor
Experimental: Rhesus H3 membranes were prepared from the Flp-In T-REx 293 Cell Line (Invitrogen) stably transfected with pcDNA5/FRT/TO (Invitrogen) containing the rhesus monkey (Macacca Mulatta) 445 amino acid H3 receptor. (Genbank #AY231164). Stably transfected cultures were amplified in tissue culture flasks by standard tissue culture methods and induced to express rhesus H3 by exposure to 500 ng/ml tetracycline (Cellgro) for 24 hours. After induction, cells were dissociated from flasks utilizing Cell Stripper (Cellgro). Cells were centrifuged (1 K×g, 5 min) and pellet frozen in an ethanol-dry ice bath to disrupt cell membranes. Frozen cell pellet was re-suspended in 5 mM HEPES (pH 7.4, Invitrogen) at 10 ml/1000 cm2 of harvested cells. The cell suspension was drawn through an 18 gauge needle (2-3×) followed by a 23 gauge needle (2-3×) to further disrupt cell membranes. The cell suspension was centrifuged (40K×g, 30 min). Cell membrane pellet was re-suspended in 5 mM HEPES (pH 7.4, Invitrogen) at a final protein concentration of 10 mg/ml. Rhesus H3 membranes were stored under liquid nitrogen prior to use in [3]-Methylhistamine and GTPγS radioligand binding assays.
(§1) Rhesus H3 radioligand binding assay was performed using rhesus H3 receptor membranes (prepared as described above), [3H]-Methylhistamine (Perkin Elmer) and WGA SPA beads (wheat germ agglutinin scintillation proximity assay) beads (Amersham). The assay was performed in 96-well Opti-Plates (Packard). Each reaction contained 50 μl rhesus H3 membranes (20-30 μg total protein), 50 μl WGA SPA beads (0.1 μg) and 50 μl of 83 Ci/mmol [^3H]-Methylhistamine (final concentration 2 nM) and 50 μl of tested compound. The compounds of this invention and/or vehicle were diluted with binding buffer from 10 mM DMSO stocks. Assay plates were sealed with TopSeal (Perkin Elmer) and mixed on shaker (25° C., 1 hour). Assay plates were read on TopCount scintillation counter (Packard). Results were analyzed by Hill transformation and Ki values were determined by Cheng-Prusoff equation. Similar procedures were employed to determine the binding data for rat and mouse.

[2] = target: Rat H3 (Rattus norvegicus, UniProt Q9QYN8); experiment: Rat H3 radioligand binding assay; conditions: similar procedure as rhesus binding
Experimental: as §1

[3] = tested on: Rats; experiment: Forced-Swimming Test in Rats; assay type: in vivo; conditions: rat, p.o. twice, 5-min test
Experimental: This example further illustrates the study of efficacy of the compounds of this invention as antidepressive agents in animal models.
The procedure was a modification of that described by Porsolt et al. (1977) Depression: a new animal model sensitive to antidepressant treatments. Nature 266:730-2. Rats were placed in individual glass cylinder (40 cm height, 18 cm diameter) containing water (22-25° C.) to a height of 15 cm. Two swimming sessions were conducted (a 15-min training session followed 24 h later by a 5-min test). After each swimming session, rats were placed under a heating lamp to avoid hypothermia. The duration of immobility was measured during the 5-min test.
Example 1 of this invention was administered p.o. twice (15 min pre-test followed by first injection 24 h prior to 5 min test) at a dosage of 10 mg/kg.
Example 2 of this invention was administered p.o. twice (15 min pre-test followed by first injection 24 h prior to 5 min test) at a dosage levels of 0.1, 1, and 10 mg/kg.

[4] = target: Mouse H3 (Mus musculus, UniProt P58406); experiment: Mouse H3 radioligand binding assay; conditions: similar procedure as rhesus binding
Experimental: as §1

Rat H3, sequence (Q9QYN8 whole entry): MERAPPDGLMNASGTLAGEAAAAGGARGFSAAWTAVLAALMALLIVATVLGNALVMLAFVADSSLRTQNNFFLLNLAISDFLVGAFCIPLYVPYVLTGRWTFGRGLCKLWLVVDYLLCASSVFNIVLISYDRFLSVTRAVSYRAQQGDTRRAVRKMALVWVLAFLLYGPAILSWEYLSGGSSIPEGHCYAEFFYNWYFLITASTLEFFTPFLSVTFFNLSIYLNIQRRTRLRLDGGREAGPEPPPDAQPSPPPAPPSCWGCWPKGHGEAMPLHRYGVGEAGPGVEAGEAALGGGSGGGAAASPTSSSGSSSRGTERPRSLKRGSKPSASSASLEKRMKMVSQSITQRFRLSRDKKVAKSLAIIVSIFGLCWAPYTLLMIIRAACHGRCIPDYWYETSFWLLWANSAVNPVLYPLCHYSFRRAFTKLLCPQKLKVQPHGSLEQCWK
T1 sequence (Q865E1 1-445): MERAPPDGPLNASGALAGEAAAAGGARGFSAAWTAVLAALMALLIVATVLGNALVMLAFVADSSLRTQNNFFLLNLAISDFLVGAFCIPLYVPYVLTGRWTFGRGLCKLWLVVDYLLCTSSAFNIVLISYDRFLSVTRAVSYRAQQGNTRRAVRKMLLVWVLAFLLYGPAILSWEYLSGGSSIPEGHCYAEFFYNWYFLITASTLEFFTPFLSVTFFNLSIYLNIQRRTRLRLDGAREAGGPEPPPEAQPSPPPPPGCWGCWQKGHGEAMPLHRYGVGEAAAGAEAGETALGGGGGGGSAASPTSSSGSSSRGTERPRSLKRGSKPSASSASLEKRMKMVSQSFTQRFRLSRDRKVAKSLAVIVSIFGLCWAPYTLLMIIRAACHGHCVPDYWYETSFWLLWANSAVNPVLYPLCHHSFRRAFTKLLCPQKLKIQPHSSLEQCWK
Mouse H3, sequence (P58406 whole entry): as the sequence (Q9QYN8 whole entry) above, with T15A, A286T, A290G, R387H, I389V counted along it

Row | Structure (SMILES) | Ki [1] [nM] | Ki [2] [nM] | activity in forced-swimming test (duration of immobility) ([3]; 10 mg/kg) | Ki [4] [nM] | melting point [°C] | activity in forced-swimming test (duration of immobility) ([3]; 0.1 mg/kg) | activity in forced-swimming test (duration of immobility) ([3]; 1 mg/kg)
1 | C[C@H]1CCCN1[C@H]1CCN(c2ccc(CC(=O)NC3CCN(C(=O)OC(C)(C)C)CC3)cc2)C1 [Example 6] | 2.75 | 19.4 | – | – | – | – | –
2 | C[C@H]1CCCN1[C@H]1CCN(c2ccc(CC(=O)NC3CCOCC3)cc2)C1 [Example 1, 2-[4-((2S,3′S)-2-Methyl-[1,3′]bipyrrolidinyl-1′-yl)-phenyl]-N-(tetrahydro-pyran-4-yl)-acetamide] | 2.5 | 8.32 | active | 10.8 | – | – | –
3 | Cc1cc(N2CC[C@H](N3CCC[C@@H]3C)C2)ccc1C(=O)NC1CCOCC1 [Example 4, 2-Methyl-4-((2S,3′S)-2-methyl-[1,3′]bipyrrolidinyl-1′-yl)-N-(tetrahydro-pyran-4-yl)-benzamide] | 1.52 | 19.7 | – | 12.1 | 147 | – | –
4 | C[C@H]1CCCN1[C@H]1CCN(c2ccc(CC(=O)NC3CCNCC3)cc2)C1 [Example 7, 2-[4-((2S,3′S)-2-Methyl-[1,3′]bipyrrolidinyl-1′-yl)-phenyl]-N-piperidin-4-yl-acetamide hydrochloride] | 0.804 | 1.12 | – | – | – | – | –
5 | CCOC(=O)N1CCC(NC(=O)Cc2ccc(N3CC[C@H](N4CCC[C@@H]4C)C3)cc2)CC1 [Example 8, 4-{2-[4-((2S,3′S)-2-Methyl-[1,3′]bipyrrolidinyl-1′-yl)-phenyl]-acetylamino}-piperidine-1-carboxylic acid ethyl ester] | 1.59 | 8.25 | – | – | – | – | –
6 | C[C@H]1CCCN1[C@H]1CCN(c2ccc(C(=O)NCC3CCOCC3)cc2)C1 [Example 5, 4-((2S,3′S)-2-Methyl-[1,3′]bipyrrolidinyl-1′-yl)-N-(tetrahydro-pyran-4-ylmethyl)-benzamide] | 1.24 | 19.1 | – | 40.3 | – | – | –
7 | C[C@H]1CCCN1[C@H]1CCN(c2ccc3cc(C(=O)NC4CCOCC4)ccc3c2)C1 [Example 2, 6-((2S,3′S)-2-Methyl-[1,3′]bipyrrolidinyl-1′-yl)-naphthalene-2-carboxylic acid (tetrahydro-pyran-4-yl)amide] | 2.99 | 9.79 | active | 19.6 | – | active | active
8 | C[C@H]1CCCN1[C@H]1CCN(c2ccc(CC(=O)NC3CCN(CC4CCCC4)CC3)cc2)C1 [Example 9, N-(1-Cyclopentylmethyl-piperidin-4-yl)-2-[4-((2S,3′S)-2-methyl-[1,3′]bipyrrolidinyl-1′-yl)-phenyl]-acetamide] | 0.69 | 1.26 | – | – | – | – | –
9 | CNC(=O)C1CCN(Cc2ccc(N3CC[C@H](N4CCC[C@@H]4C)C3)cc2)CC1 [Example 10, 1-[4-((2S,3′S)-2-Methyl-[1,3′]bipyrrolidinyl-1′-yl)-benzyl]-piperidine-4-carboxylic acid methylamide; hydrochloride] | 0.466 | 0.929 | – | 4.4 | – | – | –
10 | C[C@H]1CCCN1[C@H]1CCN(c2ccc(C(=O)NC3CCOCC3)cc2)C1 [Example 3, 4-((2S,3′S)-2-Methyl-[1,3′]bipyrrolidinyl-1′-yl)-N-(tetrahydro-pyran-4-yl)-benzamide] | 1.98 | 15 | – | 10.1 | 180 | – | –
